Laboratory results reported in BindingDB's records for doi:10.1021/jm990336n (Boehringer Ingelheim Pharmaceuticals, 2000).
pIC50: −log10 of the molar value.

Each compound was assayed against T1, Dimer of Gag-Pol polyprotein [489-587] (Human immunodeficiency virus 1, UniProt P12497) (assay: Protease Inhibition Assay). Conditions: pH 5.5; 37 °C.
T1 construct: 489-587
Method: Sensitivity of HIV-1 protease activity to protease inhibitors was determined by a peptide substrate cleavage assay. Cleavage products and substrate were separated by reversed-phase HPLC on a Perkin-Elmer 3 X 3CR C8 column.

First: CC(C)[C@H](NC(=O)c1ccc2ccccc2n1)C(=O)N[C@@H](Cc1ccccc1)[C@H](O)CN1CC[C@@H](OCc2ccncc2)C[C@H]1C(=O)NC(C)(C)C
Second: CC(C)(C)NC(=O)[C@@H]1C[C@H](OCc2ccncc2)CCN1C[C@@H](O)[C@H](Cc1ccccc1)NC(=O)CCCc1ccccc1 [(2S,4R)-N-tert-butyl-1-[(2R,3S)-2-hydroxy-4-phenyl-3-(4-phenylbutanamido)butyl]-4-(pyridin-4-ylmethoxy)piperidine-2-carboxamide]
The pIC50 of the first is higher: 8.40 for the first, less than 4.70 for the second.

Compared with CC(C)(C)NC(=O)[C@@H]1C[C@H](OCc2ccncc2)CCN1C[C@@H](O)[C@H](Cc1ccccc1)NC(=O)O[C@H]1CCOC1 [(3S)-oxolan-3-yl N-[(2S,3R)-4-[(2S,4R)-2-(tert-butylcarbamoyl)-4-(pyridin-4-ylmethoxy)piperidin-1-yl]-3-hydroxy-1-phenylbutan-2-yl]carbamate], CC(C)CN(C[C@@H](O)[C@H](Cc1ccccc1)NC(=O)O[C@H]1CCOC1)S(=O)(=O)c1ccc(N)cc1 [VX-478] is 2.00 log units higher in pIC50: 6.59 for the first, 8.59 for the second. The second is the more potent here.
